# ChEMBL document CHEMBL3885861, “Open TG-GATES”
# Organism: Rattus norvegicus
# Experiment: Open TG-GATES - Regimen: Daily Repeat
# Type: toxicity, organism-based, Sprague-Dawley
# Parameters: regimen Daily Repeat, gender Male, age 6 weeks
# Conditions: in vivo, po, 100 mg/kg, route gavage, dose level Middle; for APTT / Bas / Eos / Fbg / Hb / Ht / Lym / MCH / MCHC / MCV / Mono / Neu / PT / Plat / RBC / Ret / WBC: tissue Blood; for KIDNEY_L / KIDNEY_R / KIDNEY_TOTAL: tissue Kidney; for LIVER: tissue Liver; for A/G / ALP / ALT / AST / BUN / CRE / Ca / Cl / DBIL / GLC / IP / K / LDH / Na / PL / RALB / TBIL / TC / TG / TP / gamma-GTP: tissue Plasma
compound,measurement,setting,value
C[C@]12CCC(=O)C=C1CC[C@@H]1[C@@H]2CC[C@@]2(C)[C@H]1CC[C@]2(C)O [METHYLTESTOSTERONE],TERMINAL_BW,"72 h, time 3 day",237.7 g
same,APTT,"72 h, time 3 day",15.9 s
same,Bas,"72 h, time 3 day",0%
same,Eos,"72 h, time 3 day",1%
same,Fbg,"72 h, time 3 day",325.4 mg/dL
same,Hb,"72 h, time 3 day",13.7 g/dL
same,Ht,"72 h, time 3 day",40.1%
same,Lym,"72 h, time 3 day",73.6%
same,MCH,"72 h, time 3 day",21.9 pg
same,MCHC,"72 h, time 3 day",34%
same,MCV,"72 h, time 3 day",64.5 fL
same,Mono,"72 h, time 3 day",2.4%
same,Neu,"72 h, time 3 day",22.6%
same,PT,"72 h, time 3 day",13 s
same,Plat,"72 h, time 3 day",107 x10_4/uL
same,RBC,"72 h, time 3 day",623.4 x10_4/ul
same,Ret,"72 h, time 3 day",7%
same,WBC,"72 h, time 3 day",71.4 x10_2/uL
same,KIDNEY_L,"72 h, time 3 day",1.1 g
same,KIDNEY_R,"72 h, time 3 day",1 g
same,KIDNEY_TOTAL,"72 h, time 3 day",2.1 g
same,LIVER,"72 h, time 3 day",11.9 g
same,A/G,"72 h, time 3 day",0.9
same,ALP,"72 h, time 3 day",1787 IU/L
same,ALT,"72 h, time 3 day",41.8 IU/L
same,AST,"72 h, time 3 day",65.2 IU/L
same,BUN,"72 h, time 3 day",14.6 mg/dL
same,CRE,"72 h, time 3 day",0.2 mg/dL
same,Ca,"72 h, time 3 day",11.1 mg/dL
same,Cl,"72 h, time 3 day",107.2 meq/L
same,DBIL,"72 h, time 3 day",0.02 mg/dL
same,GLC,"72 h, time 3 day",180 mg/dL
same,IP,"72 h, time 3 day",8.2 mg/dL
same,K,"72 h, time 3 day",4.1 meq/L
same,LDH,"72 h, time 3 day",77.4 IU/L
same,Na,"72 h, time 3 day",143.4 meq/L
same,PL,"72 h, time 3 day",135 mg/dL
same,RALB,"72 h, time 3 day",2.8 g/dL
same,TBIL,"72 h, time 3 day",0.026 mg/dL
same,TC,"72 h, time 3 day",55 mg/dL
same,TG,"72 h, time 3 day",155.2 mg/dL
same,TP,"72 h, time 3 day",6 g/dL
same,gamma-GTP,"72 h, time 3 day",1 IU/L
same,TERMINAL_BW,"[…], time 7 day",271.1 g
same,TERMINAL_BW,"[…], time 14 day",314.6 g
same,TERMINAL_BW,"[…], time 28 day",402.8 g
same,APTT,"[…], time 7 day",15.7 s
same,Bas,"[…], time 7 day",0%
same,Eos,"[…], time 7 day",1%
same,Fbg,"[…], time 7 day",324.2 mg/dL
same,Hb,"[…], time 7 day",13.9 g/dL
same,Ht,"[…], time 7 day",40.8%
same,Lym,"[…], time 7 day",79%
same,MCH,"[…], time 7 day",21 pg
same,MCHC,"[…], time 7 day",34.1%
same,MCV,"[…], time 7 day",61.4 fL
same,Mono,"[…], time 7 day",2.6%
same,Neu,"[…], time 7 day",16.8%
same,PT,"[…], time 7 day",13.4 s
same,Plat,"[…], time 7 day",116 x10_4/uL
same,RBC,"[…], time 7 day",663.8 x10_4/ul
same,Ret,"[…], time 7 day",5.3%
same,WBC,"[…], time 7 day",72.5 x10_2/uL
same,APTT,"[…], time 14 day",19.7 s
same,Bas,"[…], time 14 day",0.2%
same,Eos,"[…], time 14 day",0.6%
same,Fbg,"[…], time 14 day",304 mg/dL
same,Hb,"[…], time 14 day",14.3 g/dL
same,Ht,"[…], time 14 day",41%
same,Lym,"[…], time 14 day",78.2%
same,MCH,"[…], time 14 day",20.4 pg
same,MCHC,"[…], time 14 day",34.9%
same,MCV,"[…], time 14 day",58.5 fL
same,Mono,"[…], time 14 day",3.2%
same,Neu,"[…], time 14 day",17.2%
same,PT,"[…], time 14 day",13.5 s
same,Plat,"[…], time 14 day",113.1 x10_4/uL
same,RBC,"[…], time 14 day",701.4 x10_4/ul
same,Ret,"[…], time 14 day",3.6%
same,WBC,"[…], time 14 day",101.8 x10_2/uL
same,APTT,"[…], time 28 day",17.5 s
same,Bas,"[…], time 28 day",0%
same,Eos,"[…], time 28 day",1.2%
same,Fbg,"[…], time 28 day",337 mg/dL
same,Hb,"[…], time 28 day",15.6 g/dL
same,Ht,"[…], time 28 day",43.7%
same,Lym,"[…], time 28 day",77%
same,MCH,"[…], time 28 day",19.9 pg
same,MCHC,"[…], time 28 day",35.6%
same,MCV,"[…], time 28 day",55.8 fL
same,Mono,"[…], time 28 day",2.6%
same,Neu,"[…], time 28 day",18.8%
same,PT,"[…], time 28 day",13.6 s
same,Plat,"[…], time 28 day",99.5 x10_4/uL
same,RBC,"[…], time 28 day",783.4 x10_4/ul
same,Ret,"[…], time 28 day",3%
same,WBC,"[…], time 28 day",101.5 x10_2/uL
same,KIDNEY_L,"[…], time 7 day",1.1 g
same,KIDNEY_R,"[…], time 7 day",1.2 g
same,KIDNEY_TOTAL,"[…], time 7 day",2.3 g
same,KIDNEY_L,"[…], time 14 day",1.3 g
same,KIDNEY_R,"[…], time 14 day",1.3 g
same,KIDNEY_TOTAL,"[…], time 14 day",2.6 g
same,KIDNEY_L,"[…], time 28 day",1.6 g
same,KIDNEY_R,"[…], time 28 day",1.5 g
same,KIDNEY_TOTAL,"[…], time 28 day",3.2 g
same,LIVER,"[…], time 7 day",13.1 g
same,LIVER,"[…], time 14 day",15 g
same,LIVER,"[…], time 28 day",17.8 g
same,A/G,"[…], time 7 day",0.9
same,ALP,"[…], time 7 day",2042.4 IU/L
same,ALT,"[…], time 7 day",46.8 IU/L
same,AST,"[…], time 7 day",71.6 IU/L
same,BUN,"[…], time 7 day",16.6 mg/dL
same,CRE,"[…], time 7 day",0.2 mg/dL
same,Ca,"[…], time 7 day",11 mg/dL
same,Cl,"[…], time 7 day",105.4 meq/L
same,DBIL,"[…], time 7 day",0.028 mg/dL
same,GLC,"[…], time 7 day",194.8 mg/dL
same,IP,"[…], time 7 day",8 mg/dL
same,K,"[…], time 7 day",4 meq/L
same,LDH,"[…], time 7 day",100 IU/L
same,Na,"[…], time 7 day",143 meq/L
same,PL,"[…], time 7 day",133.6 mg/dL
same,RALB,"[…], time 7 day",2.7 g/dL
same,TBIL,"[…], time 7 day",0.028 mg/dL
same,TC,"[…], time 7 day",45.8 mg/dL
same,TG,"[…], time 7 day",238.4 mg/dL
same,TP,"[…], time 7 day",5.9 g/dL
same,gamma-GTP,"[…], time 7 day",1.2 IU/L
same,A/G,"[…], time 14 day",0.8
same,ALP,"[…], time 14 day",1318.6 IU/L
same,ALT,"[…], time 14 day",64.2 IU/L
same,AST,"[…], time 14 day",76.2 IU/L
same,BUN,"[…], time 14 day",15 mg/dL
same,CRE,"[…], time 14 day",0.2 mg/dL
same,Ca,"[…], time 14 day",10.6 mg/dL
same,Cl,"[…], time 14 day",105.2 meq/L
same,DBIL,"[…], time 14 day",0.018 mg/dL
same,GLC,"[…], time 14 day",198.8 mg/dL
same,IP,"[…], time 14 day",7.9 mg/dL
same,K,"[…], time 14 day",4.1 meq/L
same,LDH,"[…], time 14 day",118.2 IU/L
same,Na,"[…], time 14 day",141.6 meq/L
same,PL,"[…], time 14 day",137.8 mg/dL
same,RALB,"[…], time 14 day",2.8 g/dL
same,TBIL,"[…], time 14 day",0.026 mg/dL
same,TC,"[…], time 14 day",52.8 mg/dL
same,TG,"[…], time 14 day",157 mg/dL
same,TP,"[…], time 14 day",6.1 g/dL
same,gamma-GTP,"[…], time 14 day",1.2 IU/L
same,A/G,"[…], time 28 day",0.8
same,ALP,"[…], time 28 day",1264.2 IU/L
same,ALT,"[…], time 28 day",43 IU/L
same,AST,"[…], time 28 day",59.8 IU/L
same,BUN,"[…], time 28 day",13.8 mg/dL
same,CRE,"[…], time 28 day",0.2 mg/dL
same,Ca,"[…], time 28 day",11.1 mg/dL
same,Cl,"[…], time 28 day",103 meq/L
same,DBIL,"[…], time 28 day",0.028 mg/dL
same,GLC,"[…], time 28 day",189.2 mg/dL
same,IP,"[…], time 28 day",6.4 mg/dL
same,K,"[…], time 28 day",3.7 meq/L
same,LDH,"[…], time 28 day",99.4 IU/L
same,Na,"[…], time 28 day",143 meq/L
same,PL,"[…], time 28 day",141 mg/dL
same,RALB,"[…], time 28 day",2.8 g/dL
same,TBIL,"[…], time 28 day",0.028 mg/dL
same,TC,"[…], time 28 day",41.2 mg/dL
same,TG,"[…], time 28 day",321.6 mg/dL
same,TP,"[…], time 28 day",6.4 g/dL
same,gamma-GTP,"[…], time 28 day",1 IU/L
